What was measured:
[1] = tested on: LNCaP cells; test: Cellular uptake and internalization in LNCaP cells; assay type: cell-based
Protocol: LNCaP cells (1 × 10^5 cells/well) were seeded into 24-well plates and incubated for 72 h. Cells were treated with 1nM [^64Cu]Cu-NOTA-TP-PSMA or control monomers ([^64Cu]Cu-NOTA-TP and [^64Cu]Cu-NOTA-PSMA), each containing 0.1 MBq of radioactivity in RPMI-1640 medium.
Uptake and internalization were assessed at multiple time points (30 min to 24 h). At each timepoint, cells were washed with cold PBS, detached with trypsin, and counted using a hemocytometer. For internalization studies, surface-bound radioactivity was removed using 50 mM glycine-HCl buffer (pH 2.2) for 5 min, followed by additional PBS washes.
To investigate the internalization mechanism, parallel experiments were conducted at 4 °C to evaluate passive versus active uptake. Receptor specificity was assessed via blocking assays using 1 µM ^natCu-NOTA-TP-PSMA (1000-fold excess) co-incubated with 1 nM radiolabeled tracer. Post-incubation, intracellular radioactivity was quantified using a HIDEX gamma counter. All results were normalized to 10^6 cells and expressed as percent counts per minute per million cells (%CPM/10^6 cells).

[2] = tested on: HEK-293 cells; test: Nuclear localization in HEK-293 cells; assay type: cell-based, human
Protocol: To assess nuclear localization, LNCaP and HEK-293 cells were incubated with 1 MBq of [^64Cu]Cu-NOTA-TP-PSMA 1 for 24, 48, and 72 h. Nuclear extraction was performed following a previously established protocol. Following incubation, cells were lysed and fractionated using cytoskeletal buffer to isolate nuclear components. Nuclear and cytoplasmic radioactivity were measured using a HIDEX automatic gamma counter. Data were used to evaluate time-dependent nuclear accumulation of the tracer.

In the case of O=C(O)CC[C@H](NC(=O)N[C@@H](CCCCNC(=O)[C@@H](Cc1ccc2ccccc2c1)NC(=O)C1CCC(CNC(=O)C(CCCCNC(=O)c2cc3[n+]4c(c2)-c2cccc[n+]2[Pt-2]4([Cl])[n+]2ccccc2-3)NC(=O)COCCOCCNC(=O)CN2CCN3CCN(CC2)CC(=O)[O][64Cu][O]C(=O)C3)CC1)C(=O)O)C(=O)O (stereo partly shown) [[^64Cu]Cu-NOTA-TP-PSMA 1], the “internalization fold greater in LNCaP than HEK-293” value ([1]; 24 h) is reported as “approximately 6 fold”, the “uptake fold greater in LNCaP than HEK-293” value ([1]; 24 h) is reported as “approximately 8 fold” and the “fold decrease of internalization/uptake at 4 °C versus 37 °C” value ([1]; LNCaP) is reported as ~ 10 fold. For the same compound, the “Internalization at 4 °C” value ([1]; LNCaP, 4 °C, 24 h) was 3.9 ± 0.5 %CPM/10^6 cells, the Internalization ([1]; LNCaP, 24 h, 37 °C, 1 nM) was 44.9 ± 7.3 %CPM/10^6 cells and the Uptake ([1]; LNCaP, 24 h, 37 °C, 1 nM) was 65.9 ± 8.6 %CPM/10^6 cells. For the same compound, the “fold decrease of internalization/uptake at 4 °C versus 37 °C” value ([1]; LNCaP, listed as [^64Cu]Cu-NOTA-TP-PSMA) was > 10 fold, the Uptake ([1]; Table S1, LNCaP, 1 h) was 16.52 ± 5.38 %ID/10⁶ cells and the Uptake blockage ([1]; Table S1, LNCaP, 1 h, 1 µM natCu-NOTA-TP-PSMA (1000-fold excess)) was 11.06 ± 5.93 %ID/10⁶ cells. The Uptake blockage ([1]; Table S1, LNCaP, 2 h, 1000-fold excess blocking) was 16.36 ± 7.23 %ID/10⁶ cells, the Uptake ([1]; Table S1, LNCaP, 4 h) was 44.61 ± 16.49 %ID/10⁶ cells and the Uptake blockage ([1]; Table S1, LNCaP, 4 h, 1000-fold excess blocking) was 18.70 ± 10.46 %ID/10⁶ cells. For the same compound, the Uptake ([1]; Table S1, LNCaP, 20 h) was 62.88 ± 9.10 %ID/10⁶ cells, the Uptake blockage ([1]; Table S1, LNCaP, 20 h, 1000-fold excess blocking) was 30.68 ± 11.43 %ID/10⁶ cells and the Uptake ([1]; Table S1, LNCaP, 24 h) was 65.87 ± 8.37 %ID/10⁶ cells. For the same compound, the Uptake blockage ([1]; Table S1, LNCaP, 24 h, 1000-fold excess blocking) was 37.00 ± 13.09 %ID/10⁶ cells, the “Internalization LNCaP” value ([1]; Table S2, 1 h) was 11.91 ± 5.75 %ID/10⁶ cells and the “Uptake LNCaP” value ([1]; Table S2, 1 h) was 16.52 ± 5.53 %ID/10⁶ cells. The “Internalization LNCaP” value ([1]; Table S2, 2 h) was 17.07 ± 6.19 %ID/10⁶ cells, the “Uptake LNCaP” value ([1]; Table S2, 2 h) was 28.67 ± 9.74 %ID/10⁶ cells and the “Internalization LNCaP” value ([1]; Table S2, 4 h) was 30.27 ± 8.92 %ID/10⁶ cells. The “Uptake LNCaP” value ([1]; Table S2, 4 h) was 44.61 ± 16.99 %ID/10⁶ cells, the “Internalization LNCaP” value ([1]; Table S2, 20 h) was 42.49 ± 9.41 %ID/10⁶ cells and the “Uptake LNCaP” value ([1]; Table S2, 20 h) was 62.88 ± 9.37 %ID/10⁶ cells. The “Internalization LNCaP” value ([1]; Table S2, 24 h) was 44.94 ± 7.32 %ID/10⁶ cells, the “Uptake LNCaP” value ([1]; Table S2, 24 h) was 65.87 ± 8.61 %ID/10⁶ cells and the “fold higher internalization compared to [64Cu]Cu-NOTA-PSMA” value ([1]; cancer cells (LNCaP), 24 h) was 2.7 fold. For the same compound, the “fold higher internalization compared to [64Cu]Cu-NOTA-TP” value ([1]; cancer cells (LNCaP), 24 h) was 1.2 fold, the “Nuclear uptake HEK-293” value ([2]; Table S4, 24 h) was 0.08 ± 0.05 %ID/10⁶ cells and the “Nuclear uptake HEK-293” value ([2]; Table S4, 48 h) was 0.15 ± 0.06 %ID/10⁶ cells. For the same compound, the “Nuclear uptake HEK-293” value ([2]; Table S4, 72 h) was 0.85 ± 0.84 %ID/10⁶ cells.

— publication PMC12692291, “Development and In Vitro Evaluation of [^64Cu]Cu-NOTA-TP-PSMA, a Novel Radiotheranostic Agent Against Prostate Cancer” (International Journal of Molecular Sciences, 2025)
